In patent US8802439B2, “Methods for enhancing infectivity of retroviruses” (priority 2009, dated 2014):

Assays:
HIV-1 = assay: Single-round infectivity on TZM-bl cells of HIV-1 produced in Pin1-inhibited 293T cells (Galacton-Star galactosidase assay); format: cell-based; settings: for boost of infectivity: TZM-bl target cells
Description: Viral inocula from transfections above were normalized to equal virion particle number via p24 ELISA and used to infect target CD4^+ HeLa cells (1×10^5 TZM-bl). Infectivity was scored using the Galacton-Star enzymatic galactosidase activity assay, and infectivity quantified by relative […] units (R.F.U).
Plasmids: Laboratory-adapted provirus NL4.3, and the CypA-independent NL4.3 CAi2 were kindly provided by Akio Adachi (Department of Virology, Institute of Health Biosciences, The University of Tokushima Graduate School, JAPAN). Mutant R9G89V was a gift from P. Gallay (TSR1) as were NL4.3-GFP and SIV-GFP (originally Dana Gabuzda, Dana Farber Cancer Institute). NL4.3 A92E was kindly provided by W. Phares (Genetics Unit, Novartis Forschungsinstitut, Vienna, Austria). R9Δgp160 plasmid clone was kindly provided by C. Aiken (Vanderbilt Medical Center). VSV-G (CMV-VSV-G) was kindly provided by D. Trono (École Polytechnique Fédérale de Lausanne). Both bMLV-GFP and nMLV-GFP in the form of pCIG3-N, pCIG3-B as well as pCNCG were kindly provided by J. Stoye (National Institute for Medical Research, UK). Isomerase mutant Pin1 (pFLAG-Pin1R68,69A) and WW-domain mutant Pin1 (pFLAG-Pin1 W34A) were constructed by site-directed mutagenesis. Pseudotyping experiments were performed using DNA constructs encoding the VSV-G generously provided by D. Trono. Human Pin1 was cloned into pFLAG (Sigma-Aldrich) making pFLAG-Pin1. Viruses were produced by transfection of 293T cells using either GeneJuice (Novagen) or calcium phosphate. […] All viruses were harvested 24-48 hours post-transfection and filtered (0.2-μM filter, Steriflip Millipore). HIV-1 viruses were normalized by p24 ELISA (Alliance HIV-1 p24 Antigen ELISA Kit, Perkin Elmer), and/or were normalized via the EnzChek® Reverse Transcriptase Assay Kit (E-22064) (Molecular Probes).
(§1) Infection assays for retrovirus: Single-round infections: CD4^+ TZM-bl 100,000 cells/well/mL were seeded onto 24-well plates 24 hours prior to infection. These cells were infected in quadruplicate to 24-well plates. Infectivity was scored using an enzymatic galactosidase activity assay. Specifically, infected TZM-bl cells were washed and lysed, and 20 μl of lysate was transferred to a 96-well plate for detecting β-galactosidase activity. 100 μl of reaction buffer Galacton-Star substrate (Applied Biosystems, Bedford, Mass.), diluted 1:50, was added to 20 μl of lysate, and the light emission was measured over 1 second in a microplate luminometer after 30 minutes incubation. For human PBMC infections, cells were exposed to 10 ng of wild-type virus for 6 hours, washed, and split into two flasks: one with 10 μM PiB added on day 0 and 3, and one without PiB. Replication was monitored by p24 ELISA. For measuring infectivity of GFP-virus, 50,000 TZMb1, sMAGI, OMK, Vero, BSC-1 and CV-1 cells/well/mL were seeded onto 6-well plates respectively 24 hours prior to infection. Viruses were used to infect in duplicate wells, incubated for 48 hours, washed with PBS, trypsinized, fixed in 1% formaldehyde and subsequently analyzed by fluorescence-activated cell sorting (FACS) for percentage cells infected.
To examine a potential role for Pin1 in HIV-1 replication we used two inhibitors of Pin1: juglone and PiB. […] 293T cells were transfected with a proviral construct encoding wild-type HIV-1 in the presence or absence of PiB or juglone.

[1] = tested on: other prolyl isomerases such as CypA or FKBP; settings: cited from earlier work
HIV-1-GFP = assay: Infectivity of HIV-1-GFP virions (RT-normalized), GFP fluorescence via FACS; format: cell-based
Protocol: 293T cells were transfected with HIV-1-GFP, SIV-GFP, bMLV-GFP, and nMLV-GFP proviral constructs, and in each case CMV-VSV-G, in the presence or absence of PiB or excess Pin1 as described above. Released virions were normalized via RT assay (EnzChek® Reverse Transcriptase Assay Kit), and infectivity on naïve TZMb1 cells was analyzed by GFP fluorescence via FACS (% cells infected).
as §1, with “For human PBMC infections, cells were exposed to 10 ng of wild-type virus for 6 hours, washed, and split into two flasks: one with 10 μM PiB added on day 0 and 3, and one without PiB.” left out, “For measuring infectivity of GFP-virus, 50,000 TZMb1, sMAGI, OMK, Vero, BSC-1 and CV-1 cells/well/mL were seeded onto 6-well plates respectively 24 hours prior to infection.” left out
We next asked whether Pin1 influences the infectivity of other retroviruses such as SIV, bMLV and nMLV. […] However, unlike previous experiments, virions were normalized via RT assay and infectivity in target cells was analyzed by GFP fluorescence via FACS. […] Note that the observed effect of Pin1 on HIV-1 infectivity using a different means of normalizing viruses (reverse transcriptase activity vs. p24 capsid) and a different means of quantifying infectivity (GFP), agrees with our previous findings above.
We further examined whether blocking Pin1 in producer cells can enhance the infectivity of retroviruses in different primate target cells. […] Infectivity was analyzed by GFP fluorescence via FACS. […]

[2] = produced in 293T with 10 μm PiB, TZMb1

CCOC(=O)CN1C(=O)c2ccc3c4c(ccc(c24)C1=O)C(=O)N(CC(=O)OCC)C3=O [PiB, diethyl-1,3,6,8-tetrahydro-1,3,6,8-tetraoxobenzo[lmn][3,8]phenanthroline-2,7-diacetate]
HIV-1 infectivity after treatment of target cells (HIV-1; TZM-bl pre-incubated with 0, 2, 10 μM PiB for 24 hours before VSV-G pseudotyped virus, read 48 hours post-infection): no effect on HIV-1 infectivity | infectivity of VSV-G pseudotyped HIV-1 lacking gp160 (NL4.3 Δenv) (HIV-1; produced in 293T in the presence of 2 μM or 10 μM PiB, TZM-bl): enhanced | boost of wild-type NL4.3 virus in the FIG. 3H experiment (HIV-1; [2]): rather mild boost | infectivity of CypA-deficient R9G89V mutant HIV-1 (HIV-1; [2]): dramatically boosted | boost of infectivity (HIV-1; viruses produced in 293T in the presence of 2.0 μM inhibitor): 2 fold | boost of infectivity (HIV-1; viruses produced in 293T in the presence of 10 μM PiB): 8 fold | inhibition of other PPIase families (CypA, FKBP) [1]: do not inhibit | boost of HIV-1-GFP infectivity (HIV-1-GFP; produced in 293T with PiB, TZMb1 cells, % cells infected): 3 fold | infectivity of HIV-1-GFP in primate target cell panel (HIV-1-GFP; produced with PiB, TZM, OMK, sMAGI, Vero, CV-1 target cells): enhanced infectivity | boost of HIV-GFP infectivity in OMK cells (HIV-1-GFP; relative to control HIV-1 infectivity seen in sMAGI cells (no infection of OMK with control HIV-1)): 400%
